Measurements taken from patent publication US10576097B2, “URLC10-derived peptide and vaccine containing same” (ONCOTHERAPY SCIENCE, INC., priority 2014, dated 2020).

Experiments:
Format in all cases: cell-based, human
[1] = system: peptide-pulsed C1R-A11; test: In vitro CTL induction, IFN-gamma ELISPOT assay (HLA-A*1101); conditions: CTLs induced from HLA-A*1101-positive donors, against peptide-pulsed C1R-A11, compared with control
Source text: (§1) Monocyte-derived dendritic cells (DCs) were used as the antigen-presenting cell to induce a cytotoxic T lymphocyte (CTL) response against peptides presented on human leukocyte antigens (HLAs). As described in the other sections, DCs were generated in vitro (Nakahara S et al., Cancer Res 2003, 63(14): 4112-8). Specifically, peripheral-blood mononuclear cells isolated from healthy volunteers (HLA-A*1101-positive) with the Ficoll-Paque plus solution (Pharmacia) were separated by attaching to plastic tissue culture dishes (Becton Dickinson) and concentrated as a monocyte fraction. The monocyte-concentrated population was cultured in the presence of 1000 IU/ml granulocyte macrophage colony-stimulating factor (R&D System) and 1000 IU/ml interleukin(IL)-4 (R&D System) in an AIM-V medium (Invitrogen) containing 2% heat-inactivated autologous serum (AS). After seven days of culturing, the cytokine-induced DCs were pulsed with 20 micro-g/ml each of the synthesized peptides in an AIM-V medium at 37 degrees C. for three hours in the presence of 3 micro-g/ml beta 2-microglobulin. The generated cells appeared to express on their cell surface DC-associated molecules such as CD80, CD83, CD86 and HLA class II (data not shown). Next, these peptide-pulsed DCs were inactivated by X-ray irradiation (20 Gy), and mixed in a 1:20 ratio with autologous CD8^+ T cells obtained by positive selection using the CD8 Positive Isolation Kit (Dynal). These culture products were seeded in a 48-well plate (Corning). Each well was made to contain 1.5×10^4 peptide-pulsed DCs, 3×10^5 CD8^+ T cells and 10 ng/ml IL-7 (R&D System) in 0.5 ml of the AIM-V/2% AS medium. Three days later, these culture products were added with a final concentration of 20 IU/ml IL-2 (CHIRON). On day 7 and day 14, T cells were further stimulated with peptide-pulsed autologous DCs. The DCs were prepared every time by the same method as above. On day 21, after the third peptide stimulation, CTLs were examined against the peptide-pulsed C1R-A11 by a human interferon (IFN)-gamma enzyme-linked immunospot (ELISPOT) assay (Tanaka H et al., Br J Cancer 2001, 84(1): 94-9; Umano Y et al., Br J Cancer 2001, 84(8): 1052-7; Uchida N et al., Clin Cancer Res 2004, 10(24): 8577-86; Suda T et al., Cancer Sci 2006, 97(5): 411-9; Watanabe T et al., Cancer Sci 2005, 96(8): 498-506).
(§2) To examine specific CTL activity, an IFN-gamma ELISPOT assay and an IFN-gamma enzyme-linked immunosorbent assay (ELISA) were performed. Specifically, peptide-pulsed C1R-A11 (1×10^4 cells/well) was prepared as the stimulator cell. The induced CTLs, i.e., CTL lines and CTL clones, were used as the responder cell. The IFN-gamma ELISPOT assay and IFN-gamma ELISA were performed according to the manufacturer's manual.

[2] = system: peptide-pulsed C1R-A03; test: In vitro CTL induction, IFN-gamma ELISPOT assay (HLA-A*0301); conditions: CTLs induced from HLA-A*0301-positive donors, against peptide-pulsed C1R-A03, compared with control
Source text: as §1, with “(HLA-A*0301-positive)” for “(HLA-A*1101-positive)”, “C1R-A03” for “C1R-A11”
as §2, with “C1R-A03” for “C1R-A11”

[3] = system: C1R-A03 cells pulsed with the respective peptide; test: IFN-gamma ELISA of CTL lines and CTL clones (HLA-A*0301)
Procedure: CTLs were propagated in culture using methods similar to those disclosed by Riddell et al. (Walter E A et al., N Engl J Med 1995, 333(16): 1038-44; Riddell S R et al., Nat Med 1996, 2(2): 216-23). The CTLs were co-cultured in a total of 25 ml AIM-V medium containing 5% AS (AIM-V/5% AS) and 40 ng/ml anti-CD3 antibody with two types of Mitomycin C-treated human B lymphoblastoid cell lines at 5×10^6 cells/flask. One day after beginning of the culturing, 120 IU/ml IL-2 was added to the culture. On days 5, 8 and 11, a fresh AIM-V/5% AS medium containing 30 IU/ml IL-2 was added to the culture (Tanaka H et al., Br J Cancer 2001, 84(1): 94-9; Umano Y et al., Br J Cancer 2001, 84(8): 1052-7; Uchida N et al., Clin Cancer Res 2004, 10(24): 8577-86; Suda T et al., Cancer Sci 2006, 97(5): 411-9; Watanabe T et al., Cancer Sci 2005, 96(8): 498-506).
Dilution of CTLs was carried out to make 1 and 10 cells/well in 96 round-bottomed microtiter plates (Nalge Nunc International). The CTLs were co-cultured with two types of Mitomycin C-treated human B lymphoblastoid cell lines at 1×10^4 cells/well in a total of 150 micro-l/well 5% AS-containing AIM-V (AIM-V/5% AS) medium with 30 ng/ml anti-CD3 antibody and 125 IU/ml IL-2. Ten days later, IL-2 was added to the medium at 50 micro-l/well to reach a final concentration of 125 IU/ml. On day 14, the CTL activity was tested, and the CTL clones were propagated using the same method as described above (Uchida N et al., Clin Cancer Res 2004, 10(24): 8577-86; Suda T et al., Cancer Sci 2006, 97(5): 411-9; Watanabe T et al., Cancer Sci 2005, 96(8): 498-506).
as §2, with “C1R-A03” for “C1R-A11”

Sequence	peptide-specific CTL activity (IFN-gamma production) [2]	also measured
RVWCHVCER (a peptide derived from URLC10) [SEQ ID NO 1, URLC10-derived 9mer peptide, start position 98]	potent IFN-gamma production	peptide-specific CTL activity (IFN-gamma production) [1]: potent IFN-gamma production
RQAPAGGRR (a peptide derived from URLC10) [SEQ ID NO 8, URLC10-derived 9mer peptide, start position 7]	specific IFN-gamma production was not observed	
LLLVVALPR (a peptide derived from URLC10) [SEQ ID NO 5, URLC10-derived 9mer peptide, start position 64]	potent IFN-gamma production	
VIAAVKIFPR (a peptide derived from URLC10) [SEQ ID NO 14, URLC10-derived 10mer peptide, start position 126]	potent IFN-gamma production	
LLEEPMPFFY (a peptide derived from URLC10) [SEQ ID NO 18, URLC10-derived 10mer peptide, start position 161]	potent IFN-gamma production	
MPFFYLKCCK (a peptide derived from URLC10) [SEQ ID NO 22, URLC10-derived 10mer peptide, start position 166]	potent IFN-gamma production	IFN-gamma production of CTL clone ([3]; CTL clone by limiting dilution, against peptide-pulsed C1R-A03 cells): Potent IFN-gamma production; IFN-gamma production of CTL line ([3]; CTL line against peptide-pulsed versus non-pulsed target cells): potent IFN-gamma production
RGGRGSPYR (a peptide derived from URLC10) [SEQ ID NO 9, URLC10-derived 9mer peptide, start position 18]		peptide-specific CTL activity (IFN-gamma production) [1]: potent IFN-gamma production
AMERPKPEEK (a peptide derived from URLC10) [SEQ ID NO 16, URLC10-derived 10mer peptide, start position 149]	potent IFN-gamma production	
KIFPRFFMV (a peptide derived from URLC10) [SEQ ID NO 6, URLC10-derived 9mer peptide, start position 131]	potent IFN-gamma production	
ILLLLASIAA (a peptide derived from URLC10) [SEQ ID NO 30, URLC10-derived 10mer peptide, start position 209]	potent IFN-gamma production	
CSAGCAAMER (a peptide derived from URLC10) [SEQ ID NO 15, URLC10-derived 10mer peptide, start position 143]	potent IFN-gamma production	
GPPINSSVFK (a peptide derived from URLC10) [SEQ ID NO 17, URLC10-derived 10mer peptide, start position 183]	potent IFN-gamma production	
ALLLVVALPR (a peptide derived from URLC10) [SEQ ID NO 12, URLC10-derived 10mer peptide, start position 63]	potent IFN-gamma production	peptide-specific CTL activity (IFN-gamma production) [1]: specific IFN-gamma production was not observed
GLWLAILLLL (a peptide derived from URLC10) [SEQ ID NO 27, URLC10-derived 10mer peptide, start position 204]	potent IFN-gamma production	
IAAVKIFPR (a peptide derived from URLC10) [SEQ ID NO 3, URLC10-derived 9mer peptide, start position 127]	potent IFN-gamma production	
